The values that follow come from ChEMBL document CHEMBL1144987, “Synthesis and In vivo anti-inflammatory activity of long-chain 2-amino-alcohols” (2003).

Common to all, as to assay type: functional
Assay [1] concerns Rattus norvegicus. Kind of assay: In vivo antiinflammatory activity by rat carrageenan-induced paw edema assay. (Carrageenan injected into the paw causes an acute inflammation.)
For assay [2], the system named is Rattus norvegicus. Kind of assay: Analgesic activity in rats by acetic acid writhing test at a dose of 0.017 mmol/kg. (In general: In writhing tests, fewer writhes than in controls are read as antinociception.)
The subject of assay [3] is Rattus norvegicus. Description: Analgesic activity in rats by acetic acid writhing test at a dose of 0.010 mmol/kg.

Compound `CCCCCCCCCCCCCC[C@H](N)CO.Cl` had a median effective dose (ED50) in the assay on Rattus norvegicus [1] of 17 µmol/kg. The Analgesic activity in the assay with Rattus norvegicus [2] was found to be 89.2%.
`CCCCCCCCCCCCCC[C@@H](N)CO.Cl`: the ED50 in the assay with Rattus norvegicus [1] was determined as 17 µmol/kg. Moreover, the Analgesic activity with Rattus norvegicus [2] stood at 72.6%.
In turn, `CCCCCCCCCCCCOC[C@@H](N)CO.Cl` came in with an ED50 in the assay with Rattus norvegicus [1] of 10 µmol/kg. Further, the Analgesic activity with Rattus norvegicus [3] stood at 95.6%.
Take `CCCCCCCC/C=C/CCCCCC[C@H](N)CO.Cl`: the ED50 in the assay with Rattus norvegicus [1] is 10 µmol/kg. For the same compound, the Analgesic activity in the assay with Rattus norvegicus [3] is 88.1%.
Compound `COc1ccc2c(c1)c(CC(=O)O)c(C)n2C(=O)c1ccc(Cl)cc1` [INDOMETHACIN] came in with a median effective dose (ED50) in the assay on Rattus norvegicus [1] of 11 µmol/kg. For the same compound, in the assay with Rattus norvegicus [2], the Analgesic activity turned out to be 47%.

As usually defined, the ED50 is the dose that gives a 50% effect, or the effect in half of the subjects.
